# From patent US20070042962A1, “Peptide dependent upregulation of telomerase expression” (priority 2002, published 2007)
# Ends that are not written are not given here.
# Columns and labels:
# telomerase [1] = test: TRAP telomerase assay in mouse neuroblastoma cells (NB2a/DL); type: cell-based; details: CMX-1 100 μg/ml or CMX-3 70 μg/ml, 6 and 24 hours
# Description: Telomerase activity was assayed in human cells and tumors by telomeric repeat amplification protocol (TRAP) (see, Piatsyzek, Methods in Cell Science, 17:1 (1995)). Whole cell lysates were prepared from approximately 10^6 Nb2a cells. Cells were washed once with PBS, repelleted, and 20 μl of lysate buffer (10 mM Tris-HCl pH 7.5, 1 mM MgCl2, 1 mM EGTA, 0.1 mM benzamidine, 5 mM β-mercaptoethanol, 0.5% CHAPS, 10% glycerol) was added directly to the washed pellets. The suspensions were incubated on ice for 30 minutes to allow cell swelling and lysis. Lysates were cleared by centrifugation at 12,000×g for 20 minutes at 4° C. Total protein concentration was determined for the cleared supernatant using a Coomassie Reagent protocol (Pierce). Supernatants were stored at −70° C.
# Telomerase activity was measured in total cellular lysates using a telomeric repeat amplification protocol (TRAP). […]
# Telomerase-induced hexamer extensions to the TS primer were performed in a 50 μl reaction volume containing 20 mM Tris-HCl (pH 8.3), 1.5 mM MgCl2, 63 mM KCl, 0.05% Tween-20, 1 mM EGTA, 50 μM dNTPs, 0.1 pmol ^32P-labeled TS primer, 1 pmol reverse primer RP (CTAACCCTAACCCTAACC) (SEQ ID NO:31), 1.0 μg cell lysate, and 2 U Taq polymerase (Ambion). […] Ladders were quantitated by excision from the gel, and counting in a Bench Count (Beckman). […]
# telomerase [2] = test: TRAP telomerase assay in primary cortical rat brain cell cultures; type: cell-based; details: for upregulation of expression of telomerase (TRAP): primary rat brain cortical cultures, 1-70 μg/ml
# Description: (§1) Telomerase activity was measured in total cellular lysates using a telomeric repeat amplification protocol (TRAP). DNA oligomer “TS” 18-mer (AATCCGTCGAGCAGAGTT) (SEQ ID NO:30) was end-labeled with P^32 in a 20 μl reaction containing 50 mM Tris-HCl (pH 7.5), 10 mM MgCl2, 0.1 mM EDTA, 1 mM DTT, 1 pmol TS primer, 1 pmol [γ-^32P]-ATP (4,500 Ci/mmol), and 5 U polynucleotide kinase (Ambion). The reaction was incubated for 20 minutes at 37° C., and then stopped by incubating for 5 minutes at 85° C. Labeled TS oligomer was stored at −20° C. until use.
# (§2) Telomerase-induced hexamer extensions to the TS primer were performed in a 50 μl reaction volume containing 20 mM Tris-HCl (pH 8.3), 1.5 mM MgCl2, 63 mM KCl, 0.05% Tween-20, 1 mM EGTA, 50 μM dNTPs, 0.1 pmol ^32P-labeled TS primer, 1 pmol reverse primer RP (CTAACCCTAACCCTAACC) (SEQ ID NO:31), 1.0 μg cell lysate, and 2 U Taq polymerase (Ambion). The reaction was incubated for 30 minutes at 30° C. Hexamer extensions were then amplified by PCR using the following program: denaturation at 94° C. for 30 seconds, annealing at 59° C. for 30 seconds, 27 cycles denaturation/annealing. Radiolabeled ladders were separated by electrophoresis on 10% polyacrylamide gels, dried onto 3 MM paper, and visualized by autoradiography with Kodak X-Omat AR film. Exposure times averaged 4 hours at 25° C. Ladders were quantitated by excision from the gel, and counting in a Bench Count (Beckman).
# The ability of representative peptide compounds described herein to upregulate telomerase was also tested in primary cortical cultures of rat brain using the TRAP telomerase assay described above.
# […] […] Negative control cultures were not exposed to a peptide compound during the growth period.
# In this case, the P^32-labeled DNA precursors were incorporated into the series of hexamer base pairs showing the upregulation of the telomerase. The total radioactivity corresponding to base pairs ladders from 50 to 80 bp was measured by counting the particular region of the gel. […] The highest concentrations of peptide compound tested produced increasingly less upregulation of the enzyme, as is typically observed at some point along most dose response curves.
# [3] = system: superoxide dismutase (SOD); details: rat brain cells; same nanogram amounts (1 ng/ml, 24 h); data not shown
# Description: (§3) Primary cortical rat brain cell cultures were prepared as described above in Example 4 except that cells were cultured following a 24-hour exposure to 0 or 1 nanograms (ng)/ml of CMX-4. […] Positive control (“Pos”) represents the analysis of 1 μg of protein from a total cell lysate of immortalized HeLa cells.
# (§4) In addition, the levels of antioxidative enzymes superoxide dismutase (SOD), catalase (CAT), and glutathione peroxidase (GPX) were determined using a standard immunoblotting protocol (see, Adams et al., J. Cell. Biochem., 77: 221-233 (2000)).
# [4] = system: glutathione peroxidase (GPX); details: rat brain cells; same nanogram amounts (1 ng/ml, 24 h); data not shown
# Description: as §3, §4
# catalase (CAT) = test: Immunoblotting of catalase in primary cortical rat brain cell cultures; type: cell-based; details: same nanogram amounts (1 ng/ml, 24 h), data not shown
# telomerase [5] = test: TRAP telomerase assay of tissue homogenates from old mice orally treated for 30 days; type: in vivo, mouse
# Description: as §1, §2
# The ability of peptide compounds described herein to upregulate telomerase in old and young mice was also studied. Here, the old mice (17 months old) were treated daily by gavage for 30 days with an oral dose of peptide CMX-2 in saline at doses of 0, 0.03, 0.3, and 3.3 mg of peptide compound per kilogram (kg) of body weight. Control animals received saline only without peptide compound. Animals were sacrificed by decapitation after 30 days and dissected to isolate the brain, heart, and liver, which was frozen at −70° C. for subsequent analysis. […]
# Telomerase activity was then measured in the cytoplasmic protein fraction of tissue homogenates.
substance,measurement,setting,value
Asp Gly [CMX-3],upregulation of telomerase over control levels (TRAP),telomerase [1],upregulated
same,upregulation of expression of telomerase (TRAP),telomerase [2],upregulated
same,upregulation of telomerase over control at dose of maximum effect,"telomerase [2]; primary rat cortical cultures, 1 μg/ml (maximum effect)",2 fold
DGDGDFAIDAPE [CMX-1],upregulation of telomerase over control levels (TRAP),telomerase [1],upregulated
same,upregulation of expression of telomerase (TRAP),telomerase [2],upregulated
same,increase in the level of telomerase expression relative to control levels,"telomerase [2]; primary rat cortical cultures, 10 μg/ml",greater than 4 fold
same,shape of dose-response curve of telomerase upregulation,"telomerase [2]; primary rat cortical cultures, 1, 10, 70 μg/ml",inverted U-shape
"R1 Asp Gly, wherein R1 is the iodine-substituted thyronine amino terminal capping group, 3,5,3′-triiodothyronine [CMX-4]",upregulation of telomerase (TRAP),"telomerase [2]; primary cortical rat brain cells, 1 ng/ml, 24-hour exposure",effective at upregulating telomerase
same,upregulation of superoxide dismutase (SOD) compared to untreated control cells,[3],upregulated
same,upregulation of glutathione peroxidase (GPX) compared to untreated control cells,[4],upregulated
same,upregulation of catalase (CAT) compared to untreated control cells,catalase (CAT),upregulated
[Ac] Asp Gly Glu Ala (Ac-DGEA; listed as Homo sapiens) [CMX-2],telomerase activity of brain tissue homogenates relative to untreated controls,"telomerase [5]; 3.3 mg/kg body weight orally by gavage daily for 30 days, brain",3.2 fold
same,upregulation of telomerase in brain tissue,"telomerase [5]; oral daily for 30 days, brain",upregulated
same,upregulation of telomerase in heart tissue,"telomerase [5]; oral daily for 30 days, heart",upregulated
